Results taken from patent publication US6905714B2, “Method for modulating steroidogenic activity” (priority 2000, dated 2005).
“Also recorded” adds a separate entry of the source.

What was measured:
glucocorticoid receptor = target: T1, glucocorticoid receptor (Homo sapiens, UniProt P04150); assay: Glucocorticoid receptor transactivation, luciferase reporter in HeLa cells; format: cell-based
T1 construct: expressed in transfected cells
T1 sequence (P04150 1-777): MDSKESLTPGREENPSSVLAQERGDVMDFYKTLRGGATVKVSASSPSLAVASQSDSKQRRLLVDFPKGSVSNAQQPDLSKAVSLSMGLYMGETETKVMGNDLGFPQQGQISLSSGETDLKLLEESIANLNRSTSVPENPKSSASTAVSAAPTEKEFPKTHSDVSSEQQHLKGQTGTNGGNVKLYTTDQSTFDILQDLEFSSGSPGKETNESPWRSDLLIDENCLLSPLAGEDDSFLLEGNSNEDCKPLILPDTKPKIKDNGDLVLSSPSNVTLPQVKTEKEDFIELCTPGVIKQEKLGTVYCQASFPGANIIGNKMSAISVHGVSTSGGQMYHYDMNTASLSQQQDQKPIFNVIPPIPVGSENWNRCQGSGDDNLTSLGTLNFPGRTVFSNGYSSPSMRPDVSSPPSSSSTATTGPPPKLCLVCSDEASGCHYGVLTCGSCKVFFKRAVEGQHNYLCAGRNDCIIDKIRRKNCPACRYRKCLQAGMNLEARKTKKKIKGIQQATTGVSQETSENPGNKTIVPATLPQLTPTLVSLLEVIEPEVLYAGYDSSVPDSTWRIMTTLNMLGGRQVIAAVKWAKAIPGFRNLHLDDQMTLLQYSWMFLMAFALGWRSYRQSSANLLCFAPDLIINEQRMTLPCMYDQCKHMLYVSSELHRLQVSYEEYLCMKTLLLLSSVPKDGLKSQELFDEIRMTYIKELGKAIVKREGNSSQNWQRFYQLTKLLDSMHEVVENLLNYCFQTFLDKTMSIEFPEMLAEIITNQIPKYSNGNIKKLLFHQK
Method: (§1) Thus, HeLa cells were cotransfected with an androgen receptor (AR) expression plasmid, a plasmid for expression of β-galactosidase (β-gal) and a luciferase reporter plasmid, ARE-Tata-luc (Jenster 1997) and then incubated with ethanol as a solvent control, or with the herbal extracts indicated in Table 1. Herbal extracts were added to the cells six hours after transfection. Thirty-six hours later, the cells were harvested and cell extracts assayed for luciferase activity.
(§2) The DNA mix contained an AR expression vector, a reporter gene vector (ARE-Tata-Luc) and a βGal vectors, the last for purposes of normalizing results for the transfection efficiency. The AR expression vector comprises a cDNA encoding AR and expressed from a SV40 promoter and a rabbit β-globin polyadenylation signal, all cloned in a pBR328 vector. The β-gal vector comprises a bacterial lacZ gene under control of an SV40 promoter-enhancer. The DNA mix was preincubated for 45 min at room temperature with lipofectamine (Promega, Madison, Wis.) in a 400 μl serum-free medium. […] Cell lysates (100 μl) were added to 20 μl of luciferase substrate and luciferase activity measured with a luminometer. Transfection efficiency was assessed by βGal activity and luciferase activity normalized to the protein content of the cell lysates. Total protein in the supernatant was quantified with bovine serum albumin as the standard.

androgen receptor = target: T2, androgen receptor (Homo sapiens, UniProt P10275); conditions: 0.3 to 10 nM; 3 nM tritiated testosterone
T2 sequence (P10275 1-920): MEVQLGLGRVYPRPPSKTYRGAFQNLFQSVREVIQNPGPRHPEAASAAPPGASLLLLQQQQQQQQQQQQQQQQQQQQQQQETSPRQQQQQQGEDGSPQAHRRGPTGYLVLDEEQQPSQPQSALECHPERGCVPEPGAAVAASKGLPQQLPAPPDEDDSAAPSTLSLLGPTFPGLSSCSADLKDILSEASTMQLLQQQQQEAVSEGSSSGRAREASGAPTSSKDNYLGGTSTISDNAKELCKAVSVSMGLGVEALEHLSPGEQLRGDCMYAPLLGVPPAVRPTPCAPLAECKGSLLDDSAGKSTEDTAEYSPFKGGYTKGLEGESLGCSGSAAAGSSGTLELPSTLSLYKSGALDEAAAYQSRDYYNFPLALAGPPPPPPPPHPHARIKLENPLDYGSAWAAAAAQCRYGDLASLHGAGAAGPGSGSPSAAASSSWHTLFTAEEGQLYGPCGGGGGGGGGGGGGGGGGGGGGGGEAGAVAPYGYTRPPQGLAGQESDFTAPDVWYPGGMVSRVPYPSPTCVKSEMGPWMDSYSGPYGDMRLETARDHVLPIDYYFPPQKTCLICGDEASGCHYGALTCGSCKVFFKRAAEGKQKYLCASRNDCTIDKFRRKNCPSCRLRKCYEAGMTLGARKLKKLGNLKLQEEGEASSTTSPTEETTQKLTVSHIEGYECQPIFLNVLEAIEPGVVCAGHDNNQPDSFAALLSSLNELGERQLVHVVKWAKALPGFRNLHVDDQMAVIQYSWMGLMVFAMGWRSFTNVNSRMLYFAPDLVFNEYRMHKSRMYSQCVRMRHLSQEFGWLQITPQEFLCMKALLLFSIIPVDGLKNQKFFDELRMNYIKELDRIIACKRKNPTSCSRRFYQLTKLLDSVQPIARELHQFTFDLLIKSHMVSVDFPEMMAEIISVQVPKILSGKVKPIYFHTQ

progesterone receptor = target: T3, progesterone receptor (Homo sapiens, UniProt P06401); assay: Progesterone receptor transactivation, luciferase reporter in HeLa cells
T3 sequence (P06401 1-933): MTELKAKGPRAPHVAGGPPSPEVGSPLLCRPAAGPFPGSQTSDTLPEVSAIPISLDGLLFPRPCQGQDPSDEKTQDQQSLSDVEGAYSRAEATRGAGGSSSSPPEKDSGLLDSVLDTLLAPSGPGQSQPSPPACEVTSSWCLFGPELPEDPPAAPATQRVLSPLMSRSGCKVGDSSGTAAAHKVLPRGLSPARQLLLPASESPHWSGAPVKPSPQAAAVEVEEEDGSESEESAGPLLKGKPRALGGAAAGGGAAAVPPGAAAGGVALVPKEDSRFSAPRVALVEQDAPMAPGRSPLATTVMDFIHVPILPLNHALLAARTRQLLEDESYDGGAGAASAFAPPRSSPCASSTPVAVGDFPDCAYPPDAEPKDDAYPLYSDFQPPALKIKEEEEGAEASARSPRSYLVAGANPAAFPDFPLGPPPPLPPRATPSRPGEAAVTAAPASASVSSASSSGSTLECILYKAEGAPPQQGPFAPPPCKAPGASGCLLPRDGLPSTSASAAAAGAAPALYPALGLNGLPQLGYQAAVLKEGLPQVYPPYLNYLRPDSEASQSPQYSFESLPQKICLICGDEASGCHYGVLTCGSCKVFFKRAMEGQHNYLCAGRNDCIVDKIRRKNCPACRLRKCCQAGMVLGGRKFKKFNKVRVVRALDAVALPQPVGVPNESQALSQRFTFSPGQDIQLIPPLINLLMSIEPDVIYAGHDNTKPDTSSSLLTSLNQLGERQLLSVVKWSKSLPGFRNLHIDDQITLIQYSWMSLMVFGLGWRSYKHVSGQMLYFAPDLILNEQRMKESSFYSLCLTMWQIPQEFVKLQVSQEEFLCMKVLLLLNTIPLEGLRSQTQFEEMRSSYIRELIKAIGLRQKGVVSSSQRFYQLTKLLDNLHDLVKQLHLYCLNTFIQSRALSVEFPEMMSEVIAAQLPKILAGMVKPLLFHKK
Method: as §1, §2

[1] = tested on: ventral prostate gland, immature Wistar rats; assay: Growth of the ventral prostate gland in immature Wistar rats; format: in vivo, rat; conditions: testosterone intramuscularly, alone (FIG. 6a)
Method: The growth of the ventral prostate gland, an androgen-dependent tissue, in immature Wistar rats was measured.
To determine the androgenic effect of an ethanolic EU extract in animals, the growth of the ventral prostate gland, an androgen-dependent tissue, in immature Wistar rats was measured. […] In this model, exogenous androgen administration can be directly correlated with the growth of the ventral prostate.

C[C@]12CCC(=O)C=C1CC[C@@H]1[C@@H]2[C@@H](O)C[C@@]2(C)[C@H]1CC[C@]2(O)C(=O)CO [Cortisol, cortisol]
Ratio of Luc activity as percentage (%) of 1 nM ligand (glucocorticoid receptor; substance alone): 100% | Luc activity (fold induction) (glucocorticoid receptor; substance alone (extract, or 1 nM cortisol)): 194 fold | displacement of tritiated testosterone (androgen receptor): does not displace tritiated testosterone

CC(=O)[C@H]1CC[C@H]2[C@@H]3CCC4=CC(=O)CC[C@]4(C)[C@H]3CC[C@]12C [Progesterone, progesterone]
Ratio of Luc activity as percentage (%) of 1 nM ligand (progesterone receptor; substance alone): 100% | Luc activity (fold induction) (progesterone receptor; substance alone (extract, or 1 nM progesterone)): 67 fold

C[C@]12CC[C@H]3[C@@H](CCC4=CC(=O)CC[C@@]43C)[C@@H]1CC[C@@H]2O [testosterone]
prostate weight (per unit body weight) [1]: dose-dependent increase in prostate weight; also recorded: dose-dependent increments in prostatic weight
